Laboratory results reported in patent US20220304307A1, “SYNERGISTIC MIXTURES FOR ARTHROPOD TOXICITY AND REPELLENCY” (University of Florida Research Foundation, Incorporated, priority 2019, published 2022).
“Also recorded” adds a separate entry of the source. Where a name gives a salt, the structure may show the parent alone. Read-outs that look alike come from different tables or passages of the source.

Legend:
[1] = system: Orlando insecticide-susceptible strain of Ae. aegypti (female mosquitoes); assay: Glass tube spatial repellency assay; format: in vivo, Aedes aegypti; conditions: for spatial repellency in screening: 100 μg/cm^2, 1 hr exposure; for spatial repellency in screening / repellency EC50 / repellency at highest concentration tested (words): compound alone; for 15 min repellency ratio / 30 min repellency ratio / 1 hr repellency ratio: horizontal tube, 0.5=0% repellency, 0=100% repellency; for effect of TFA on repellency, applied as mixture: TFA 50 μg/cm^2 + EC20 of test compound (permethrin 30 μg/cm^2); for effect of TFA on repellency, applied as mixture / repellency EC50 (+TFA) / repellency EC50: 1 hr; for effect of TFA on repellency, applied side-by-side: TFA 50 μg/cm^2 side-by-side, DEET 18 μg/cm^2; for repellency EC50 (+TFA): applied as mixture with TFA (50 μg/cm^2); for synergism of repellency with citronella: citronella at its EC20 (20 μg/cm^2); for synergist ratio SR (EC50 compound alone/EC50 compound+TFA): TFA 50 μg/cm^2 as mixture; for EC50 (95% CL), repellency of TFA esters: 1 hr exposures, Ae. aegypti females; for repellency at highest concentration tested (words): 1-2 mg/cm^2
Description: (§1) The following assay was conducted according to the procedures of Jiang et al., 2019 (Jiang S., Yang L, and Bloomquist J (2019) High-throughput screening method for evaluating spatial repellency and vapor toxicity to mosquitoes. Med. Vet. Entomol.). For assessing behavioral repellency (FIG. 1), sixteen female Aedes aegypti mosquitoes were transferred to a glass tube (12.5 cm long, 2.5 cm outer diameter) with the ends covered with netting. Metofluthrin, bifenthrin, permethrin, pyrethrum, transfluthrin, deltamethrin, esfenvalerate, metofluthrin acid, bifenthrin acid, phenothrin acid, transchryanthemic acid, transfluthrin acid, deltamethrin acid, and fenvalerate acid were each dissolved in 1 mL of acetone and serial dilutions ranging from 30-0.01 μg/ml were made. Circular filter papers (5 cm^2) were saturated with 50 μL of each concentration and allowed 10 min for solvent evaporation. The filter papers were then placed in clear conical polypropylene caps and fixed to the end of the glass tubes. The netting prevented mosquito contact with the filter paper. Tubes were then aligned with a mark denoting the midline and the proportion of mosquitoes on the chemically treated side was scored at 15, 30, and 60 min. At the end of the test, the tube was placed in a cage and the ability of the mosquitoes to fly out of the tube was assessed for 30 min. […] This post-test evaluated whether any non-responding mosquitoes (not repelled) was due to intoxication or disorientation from the test chemical. For vapor toxicity, the assay was identical, except that mosquitoes were kept in the tube for 24 hr without the post-test at 1 hr, and the mortality was recorded at 24 hr.

[2] = system: female Ae. aegypti; assay: Human arm bite protection assay; format: in vivo, Aedes aegypti; conditions: for MED values Female 10: as E30, volunteer one; for MED values Female 9: as E30, volunteer two; for MED Mean: mean of three human volunteers; for MED values Male 4: minimum amount preventing 99% of bites, treated cloth patch, 1 min in cage, mixtures with TFA 0.047 or TCA 0.094 mg/cm^2
Description: A human bite protection assay was performed according to see if the repellency observed in glass tubes extended to bite protection. The assay was run in accordance with that of Tsikolia et al. (Tsikolia M, Bernier UR, Coy M, Chalaire K, Becnel J, Agramonte N, Tabanca N, Wedge D, Clark G, Linthicum K, Swale D, and J. R. Bloomquist J (2013) Insecticidal and fungicidal properties of novel trifluoromethylphenyl amides. Pestic. Biochem. Physiol. 107, 138-147). Treated cloth patches were worn by human volunteers and the number of blood fed mosquitoes was determined after 1 min spent in a cage with 500 (±10%) female Ae. aegypti. Minimum Effective Dosage (MED in mg/cm^2) is the minimum amount required to prevent 99% of bites in three human volunteers (UF IRB #201602334). Synergist ratio (SR)=MED chemical alone/MED chemical+TFA (0.047 mg/cm^2) or TCA (0.094 mg/cm^2).

[3] = system: insecticide-susceptible Aedes aegypti (Orlando strain) females; assay: Glass tube vapor toxicity assay (24 hr mortality); conditions: for 24 hr mort (%): horizontal tube; for mortality at 100 µg/cm2: Aedes aegypti
Description: as §1
Synergism ratio (SR)=LC50 pyrethroid/LC50 pyrethroid+EO.

| Compound | MED values Female 10 [2] | MED values Female 9 [2] | MED Mean [2] | MED values Male 4 [2] | repellency EC50 (+TFA) [1] | repellency EC50 [1] | synergist ratio SR (EC50 compound alone/EC50 compound+TFA) ([1]; repellency) | further results |
| --- | --- | --- | --- | --- | --- | --- | --- | --- |
| CC1(C)[C@H](C(=O)O[C@H](C#N)c2cccc(Oc3ccccc3)c2)[C@@H]1C=C(Br)Br [deltamethrin, Deltamethrin, reference compound] |  |  |  |  |  |  |  | spatial repellency in screening [1]: inactive as vapor phase repellents |
| benzyloxybenzaldehyde |  |  |  |  |  |  |  | 15 min repellency ratio ([1]; 10 μg/cm^2): 0.69; 30 min repellency ratio ([1]; 10 μg/cm^2): 0.69; 1 hr repellency ratio ([1]; 10 μg/cm^2): 0.63; 15 min repellency ratio ([1]; 100 μg/cm^2): 0.69; 30 min repellency ratio ([1]; 100 μg/cm^2): 0.81; 1 hr repellency ratio ([1]; 100 μg/cm^2): 0.44 |
| CCN(CC)C(=O)c1cccc(C)c1 [DEET, N,N-diethyl-m-toluamide, reference compound] | 0.011 mg/cm^2 | 0.011 mg/cm^2 | 0.011 mg/cm^2 | 0.011 mg/cm^2 | 26 μg/cm^2 | 39 μg/cm^2 | 1.5 | effect of TFA on repellency, applied as mixture [1]: no statistically significant effect; effect of TFA on repellency, applied side-by-side [1]: synergistic effect was observed; repellency EC50 +TFA(S) ([1]; TFA (50 μg/cm^2) applied side-by-side on halves of the filter): 8.1 μg/cm^2; synergism of repellency with citronella [1]: did not synergize; fold decrease of EC50 by TFA side-by-side ([1]; repellency, TFA 50 μg/cm^2 side-by-side treatment): ~5 fold |
| CC1(C)C(C=C(Cl)Cl)C1C(=O)O (stereo not shown) [TFA, transfluthrin acid] | 0.094 mg/cm^2 | 0.187 mg/cm^2 | 0.156 mg/cm^2 | 0.187 mg/cm^2 |  |  |  | repellency of TFA by itself ([1]; TFA alone, 50 μg/cm^2 and higher): no repellent activity by itself; also recorded: no effect; also recorded: inactive by itself; synergism of repellency with citronella [1]: strong positive response; also recorded: Synergistic interactions were discovered |
| Cc1cccc(C(N)=O)c1 [m-toluamide] |  |  |  |  |  |  |  | 15 min repellency ratio ([1]; 10 μg/cm^2): 0.50; 30 min repellency ratio ([1]; 10 μg/cm^2): 0.50; 1 hr repellency ratio ([1]; 10 μg/cm^2): 0.38; 15 min repellency ratio ([1]; 100 μg/cm^2): 0.19; 30 min repellency ratio ([1]; 100 μg/cm^2): 0.31; 1 hr repellency ratio ([1]; 100 μg/cm^2): 0.06 |
| CC/C=C\C[C@H]1C(=O)CC[C@@H]1CC(=O)OC [methyl jasmonate, Methyl (1R,2R)-3-Oxo-2-(2Z)-2-pentenyl-cyclopentaneacetate] | 0.75 mg/cm^2 | 0.75 mg/cm^2 | >1 mg/cm^2 | >1.5 mg/cm^2 | 6 μg/cm^2 | 39 μg/cm^2 | 6.5 |  |
| COCc1c(F)c(F)c(CO)c(F)c1F [metofluthrin alcohol] |  |  |  |  |  |  |  | synergism of repellency with GMR 134 ([1]; alcohol 100 μg/cm^2 mixed with GMR 134 at 2 μg/cm^2): significantly synergized |
| CCCCCCCCCC(C)=O [2-undecanone] | 0.375 mg/cm^2 | 0.187 mg/cm^2 | 0.219 mg/cm^2 | 0.094 mg/cm^2 | 5.1 μg/cm^2 | 59 μg/cm^2 | 11.6 |  |
| CC(C)(C)c1cccc(C=O)c1 [3-tert-butylbenzaldehyde] |  |  |  |  |  |  |  | 24 hr mort (%) ([3]; 10 μg/cm^2): 6.3%; 24 hr mort (%) ([3]; 100 μg/cm^2): 81.3%; mortality at 100 µg/cm2 ([3]; 0.25 h, read-out: 15 min % mortality): 96.9%; mortality at 100 µg/cm2 ([3]; 0.5 h, read-out: 30 min % mortality): 100%; mortality at 100 µg/cm2 ([3]; 1 h, read-out: 1 hr % mortality): 100%; 15 min repellency ratio ([1]; 10 μg/cm^2): 0.31; 30 min repellency ratio ([1]; 10 μg/cm^2): 0.25; 1 hr repellency ratio ([1]; 10 μg/cm^2): 0.31 |
| O=Cc1cccc(O)c1 [3-hydroxybenzaldehyde] |  |  |  |  |  |  |  | 24 hr mort (%) ([3]; 10 μg/cm^2): 21.9%; 24 hr mort (%) ([3]; 100 μg/cm^2): 15.6%; 15 min repellency ratio ([1]; 10 μg/cm^2): 0.56; 30 min repellency ratio ([1]; 10 μg/cm^2): 0.53; 1 hr repellency ratio ([1]; 10 μg/cm^2): 0.56; 15 min repellency ratio ([1]; 100 μg/cm^2): 0.41; 30 min repellency ratio ([1]; 100 μg/cm^2): 0.41; 1 hr repellency ratio ([1]; 100 μg/cm^2): 0.56 |
| CC1(C)[C@H](C=C(Cl)Cl)[C@H]1C(=O)OC1CC1 [GMR 126, Cyclopropyl (1R,3S)-3-(2,2-dichlorovinyl)-2,2-dimethylcyclopropane-1-carboxylate] |  |  |  |  | 0.35 μg/cm^2 | 8.5 μg/cm^2 | 24 | EC50 (95% CL), repellency of TFA esters [1]: 8.5 (5-13) μg/cm^2 |
| CC1(C)C(C=C(Cl)Cl)C1C(=O)OCc1cccc(Oc2ccccc2)c1 (stereo not drawn) [permethrin, 3-phenoxybenzyl 3-(β,β-dichlorovinyl)-2,2-dimethylcyclopropanecarboxylate, reference compound] | 0.187 mg/cm^2 | 0.187 mg/cm^2 | 0.187 mg/cm^2 | 0.187 mg/cm^2 | 9.5 μg/cm^2 | >1000 μg/cm^2 | >105 | spatial repellency in screening [1]: inactive as vapor phase repellents; effect of TFA on repellency, applied as mixture [1]: some spatial repellency; repellency at highest concentration tested (words) [1]: repellency was not observed; repellency at highest concentration tested (words) ([1]; listed as Permethrin): inactive |
| CCc1ccc(NC(=O)CSc2nnc(-c3cccnc3)n2CC)cc1 [VUAA-1, 2-(4-Ethyl-5-(pyridin-3-yl)-4H-1,2,4-triazol-3-ylthio)-N-(4-ethylphenyl)acetamide, reference compound] |  |  |  |  | 30 μg/cm^2 | >2000 μg/cm^2 | >67 | effect of TFA on repellency, applied side-by-side [1]: synergism disappeared; repellency EC50 +citronella ([1]; co-applied citronella at its EC20 (20 μg/cm^2)): 34 μg/cm^2; repellency at highest concentration tested (words) [1]: inactive; also recorded: repellency was not observed |
| CC1(C)[C@H](C=C(Cl)Cl)[C@H]1C(=O)OC1CCC1 [GMR 125, Cyclobutyl (1R,3S)-3-(2,2-dichlorovinyl)-2,2-dimethylcyclopropane-1-carboxylate] |  |  |  |  |  |  |  | EC50 (95% CL), repellency of TFA esters [1]: 17 (11-27) μg/cm^2 |
| OCc1c(F)c(F)cc(F)c1F [TF-OH, transfluthrin alcohol] |  |  |  |  | 41 μg/cm^2 | 80 μg/cm^2 | about 2 | spatial repellency in screening [1]: significant repellency |
| Cc1c(COC(=O)C2C(/C=C(/Cl)C(F)(F)F)C2(C)C)cccc1-c1ccccc1 (stereo not shown) [bifenthrin, Bifenthrin, reference compound] |  |  |  |  |  |  |  | spatial repellency in screening [1]: some repellency at high exposure |
| O=Cc1ccccc1 [benzaldehyde, reference compound] |  |  |  |  | 15 μg/cm^2 | 118 μg/cm^2 | 8 |  |
| CCCCN(CCC(=O)OCC)C(C)=O [IR3535, ethyl butylacetylaminopropionate] | 0.047 mg/cm^2 | 0.047 mg/cm^2 | 0.063 mg/cm^2 | 0.094 mg/cm^2 |  |  |  | effect of TFA on repellency, applied as mixture [1]: no statistically significant effect |
| O=Cc1cccc(Oc2ccccc2)c1 [3-phenoxybenzaldehyde] | 0.750 mg/cm^2 | >0.75 mg/cm^2 | >0.75 mg/cm^2 | >0.75 mg/cm^2 |  |  |  |  |
| CC1(C)[C@H](C=C(Cl)Cl)[C@H]1C(=O)OC1CCCC1 [GMR 124, Cyclopentyl (1R,3S)-3-(2,2-dichlorovinyl)-2,2-dimethylcyclopropane-1-carboxylate] |  |  |  |  |  |  |  | EC50 (95% CL), repellency of TFA esters [1]: 11 (8-15) μg/cm^2 |
| CCCCCOC(=O)[C@@H]1[C@@H](C=C(Cl)Cl)C1(C)C [GMR 120, nPentyl (1R,3S)-3-(2,2-dichlorovinyl)-2,2-dimethylcyclopropane-1-carboxylate] |  |  |  |  |  |  |  | EC50 (95% CL), repellency of TFA esters [1]: 10 (7-15) μg/cm^2 |
